Measured values reported in the NIST ThermoML archive (doi:10.1021/je0340755).

Assay: xn = mol fraction of the nth substance listed
Settings: 101.3 kPa, Liquid; for viscosity: Capillary tube (Ostwald / Ubbelohde) method

OCCCCO [1,4-butanediol] + O
Settings	mass density, 328.15 K [kg/m3]	mass density, 338.15 K [kg/m3]	speed of sound, 328.15 K [m/s]	speed of sound, 338.15 K [m/s]	viscosity, 338.15 K [mPa·s]
x2 = 0.055	–	988.66	–	1531.3	12.72
x2 = 0.1534	–	989.67	–	1540.8	11.28
x2 = 0.2472	–	990.72	–	1549.4	9.897
x2 = 0.3542	–	992.05	–	1562.2	8.335
x2 = 0.4531	–	993.23	–	1575.1	6.914
x2 = 0.498	–	993.7	–	1580.7	6.279
x2 = 0.5578	–	994.23	–	1588.5	5.449
x2 = 0.6513	–	994.7	–	1599	4.213
x2 = 0.7496	–	994.27	–	1611.3	3.033
x2 = 0.8475	–	991.81	–	1615.6	2
x2 = 0.9081	–	988.57	–	1606.6	1.404
x2 = 0.9152	–	988.08	–	1605.1	1.335
x2 = 0.9253	–	987.35	–	1601.7	1.235
x2 = 0.9355	–	986.56	1611.8	1597.4	1.133
x2 = 0.9543	990.62	984.97	1597.3	1587.8	0.941
x2 = 0.955	990.55	984.91	1596.3	1586.8	0.934
x2 = 0.9597	990.08	984.49	1592.2	1584.2	0.885
x2 = 0.9699	989.02	983.54	1581.9	1577.1	0.776
x2 = 0.9804	987.89	982.52	1569.6	1569	0.662
x2 = 0.9901	986.81	981.56	1558.3	1560	0.553
x2 = 0.9924	986.55	981.32	1555.3	1558.2	0.527
x2 = 0.9955	986.2	981.01	1550.2	1554.5	0.491
